In paper PMC8284454, “In Vitro Profiling of Antitubercular Compounds by Rapid, Efficient, and Nondestructive Assays Using Autoluminescent Mycobacterium tuberculosis” (Antimicrobial Agents and Chemotherapy, 2021):
Values after ≈ are worked out from the molar mass of the structure shown. “Also recorded” adds a separate entry of the source. Read-outs that look alike come from different tables or passages of the source. Marks after values point to notes of the source that are not given here. *1 amine or outer side, *2 acyl side, *3 side chain or, on linkers, in order; H or OH if unused. Where a SMILES comes first, the peptide text is derived from it. Bridges are numbered along the chain shown (N, C = ends). [ ]: non-standard residue; d: D form. The star is where a group is joined. Phe(3R-OH) = O=C([C@@H](N[*:1])[C@H](O[*:3])c1ccccc1)[*:2]; NMeTrp(4-OMe) = CN[C@@H](Cc1c[nH]c2cccc(OC)c12)C(=O)O; NMeaIle = CC[C@@H](C)[C@H](NC)C(=O)O; NMe2Val = CC(C)[C@@H](C(=O)*)N(C)C; NMeT = CN[C@H](C(=O)O)[C@@H](C)O; NMeL = CN[C@@H](CC(C)C)C(=O)O; NMeV = CN[C@H](C(=O)O)C(C)C

Columns and labels:
[1] = test system: M. tuberculosis H37Rv_LuxABCDE; assay: luminescence-based MBC assay (LMBCA) / time-kill; type: cell-based, Mycobacterium tuberculosis; settings: for MBC: Mycobacterium tuberculosis; for change of MBC values over time: over 21 days, luminescence time-kill; for time and/or concentration dependence of bactericidal activity: time-kill curves up to day 21
[2] = test system: M. tuberculosis H37Rv_LuxABCDE; assay: microbe, parasite or virus in culture; type: cell-based, Mycobacterium tuberculosis; settings: day 7, SD from three independent experiments; for MBC: Mycobacterium tuberculosis, read-out: MBC (±SD) via CFU
[3] = test system: M. tuberculosis H37Rv_LuxABCDE; assay: luminescence-based MIC assay (LMICA); settings: 90% reduction of luminescence, 7 days, 7H12 medium; SD from three independent experiments
[4] = test system: M. tuberculosis H37Rv_LuxABCDE; assay: microplate alamarBlue assay (MABA) MIC; settings: 90% reduction of fluorescence, 7 days, 7H12 medium; SD from three independent experiments
[5] = test system: J774-internalized M. tuberculosis (H37Rv); assay: intracellular activity by luminescence (EC90); type: cell-based, Mycobacterium tuberculosis; settings: for EC90: RLU; for onset of growth inhibition of internalized M. tuberculosis: early = EC90 obtainable by day 3, late = EC90 obtainable by day 5 or later
[6] = test system: infected J774
[7] = test system: macrophage-internalized M. tuberculosis; settings: read-out: Literature reported EC90, cited from earlier work
[8] = test system: M. tuberculosis H37Rv_LuxABCDE; assay: postantibiotic effect by luminescence (RLU); type: cell-based, Mycobacterium tuberculosis; settings: 1.5 log10 RLU increase, 1:10,000-fold dilution
[9] = test system: M. tuberculosis H37Rv_LuxABCDE; type: cell-based, Mycobacterium tuberculosis; settings: 1:10,000-fold dilution
[10] = test system: J774 infected with M. tuberculosis strain Erdman; settings: read-out: Literature reported EC90; cited from earlier work
[11] = 168 h, day 7, 99% reduction in RLU vs T0, SD from three independent experiments, read-out: MBC (±SD) via luminescence
[12] = 336 h, day 14, 99% reduction in RLU vs T0, read-out: MBC (±SD) by luminescence on day 14
[13] = 504 h, day 21, 99% reduction in RLU vs T0, read-out: MBC (±SD) by luminescence on day 21
[14] = day 7, 99% reduction in RLU vs T0, SD from three independent experiments
[15] = Mycobacterium tuberculosis, H37RV, 72 h, EC90, day 3, J774 macrophages, read-out: Intracellular activity, EC90 (±SD) Day 3
[16] = Mycobacterium tuberculosis, H37RV, 120 h, EC90, day 5, J774 macrophages, read-out: Intracellular activity, EC90 (±SD) Day 5
[17] = Mycobacterium tuberculosis, H37RV, 168 h, EC90, day 7, J774 macrophages, read-out: Intracellular activity, EC90 (±SD) Day 7

Row | SMILES | MBC [1, 11] [µM] | MBC [1, 12] [µM] | MBC [1, 13] [µM] | change of MBC values over time [1] | time and/or concentration dependence of bactericidal activity [1] | MBC [2] [µM] | MIC (±SD) LMICA [3] | MIC (±SD) MABA [4] | MBC (±SD) via luminescence [1, 14] | EC90 [5, 15] [nM] | EC90 [5, 16] [nM] | EC90 [5, 17] [nM] | onset of growth inhibition of internalized M. tuberculosis [5] | EC90 ([7]; EC90) [nM] | further results
1 | O=[N+]([O-])c1cn2c(n1)OC[C@@H](OCc1ccc(OC(F)(F)F)cc1)C2 [Pretomanid] | 0.63 (≈ 0.226 µg/mL) | 12.5 (≈ 4.49 µg/mL) | 13 (≈ 4.67 µg/mL) | increase | both time and concentration dependent | 0.5 (≈ 0.18 µg/mL) | 0.46 (0.01) μM | 0.49 (0.02) μM |  |  |  |  |  |  | 
2 | CC[C@@H](CO)NCCN[C@@H](CC)CO [Ethambutol] | 9.18 (≈ 1.88 µg/mL) | 3.17 (≈ 0.648 µg/mL) | 3.28 (≈ 0.67 µg/mL) | decreased | mainly time dependent | 7.9 (≈ 1.61 µg/mL) | 1.3 (0.38) μM | 2.0 (0.41) μM | 9.2 (2.7) μM | > 50000 | 44000 | 23800 | late growth inhibition | 16700 | inhibition at 50 µM ([5]; Mycobacterium tuberculosis, H37RV, 72 h, day 3, 50 μM, read-out: percent inhibition at the highest tested concentration, intracellular activity Day 3): 68%; Toxicity against infected J774, percent inhibition at the highest tested concentration ([6]; day 7, 50 μM): 50 (0)* percent
3 | NCC[C@H](O)C(=O)N[C@@H]1C[C@H](N)[C@@H](O[C@H]2O[C@H](CN)[C@@H](O)[C@H](O)[C@H]2O)[C@H](O)[C@H]1O[C@H]1O[C@H](CO)[C@@H](O)[C@H](N)[C@H]1O [Amikacin] |  |  |  |  |  |  |  |  |  | > 34000 | > 34000 | > 34000 |  |  | inhibition at 34 µM ([5]; Mycobacterium tuberculosis, H37RV, 72 h, day 3, 34 μM, read-out: percent inhibition at the highest tested concentration, intracellular activity Day 3): 4%; inhibition at 34 µM ([5]; Mycobacterium tuberculosis, H37RV, 120 h, day 5, 34 μM, read-out: percent inhibition at the highest tested concentration, intracellular activity Day 5): 34%; inhibition at 34 µM ([5]; Mycobacterium tuberculosis, H37RV, 168 h, day 7, 34 μM, read-out: percent inhibition at the highest tested concentration, intracellular activity Day 7): 49%; EC90 ([7]; EC90, high-content imaging on day 5): > 26000 nM
4 | [H]/N=C(/N)N[C@H]1[C@H](O)[C@@H](O)[C@H](O[C@@H]2O[C@@H](C)[C@](O)(C=O)[C@H]2O[C@@H]2O[C@@H](CO)[C@H](O)[C@@H](O)[C@@H]2NC)[C@@H](N/C(N)=N\[H])[C@@H]1O [Streptomycin] | 0.3 (≈ 0.174 µg/mL) | 0.5 (≈ 0.291 µg/mL) | 0.9 (≈ 0.523 µg/mL) |  | both time and concentration dependent | 0.37 (≈ 0.215 µg/mL) | 0.12 (0.04) μM | 0.12 (0.02) μM |  |  |  |  |  |  | 
5 | CC[C@@H](C)[C@@H](C(=O)N[C@@H]1C(=O)N(C)[C@@H]([C@@H](C)O)C(=O)N[C@@H](C(C)C)C(=O)N(C)[C@@H](CC(C)C)C(=O)N[C@@H](C(C)C)C(=O)N(C)[C@@H](C(C)C)C(=O)N(C)[C@@H](Cc2c[nH]c3cccc(OC)c23)C(=O)N[C@@H](C(C)C)C(=O)N[C@@H]([C@H](O)c2ccccc2)C(=O)N[C@@H](C(C)C)C(=O)O[C@@H]1C)N(C)C(=O)[C@@H](NC(=O)[C@H](C(C)C)N(C)C)C(C)C [Ecumicin] (NMe2Val-V[NMeaIle]T[NMeT]V[NMeL]V[NMeV][NMeTrp(4-OMe)]V[Phe(3R-OH)]V; ester 3-C) |  |  |  | decreased | mainly time dependent |  | 0.074 (0.002) μM | 0.081 (0.02) μM | 0.22 (0.1) μM |  |  |  | early growth inhibition |  | bactericidal or bacteriostatic activity [1]: strong bactericidal activity; also recorded: classical bactericidal dose response; MBC (±SD) by luminescence on day 14 ([1]; day 14, 99% reduction in RLU vs T0): 0.20 (0.09) µM; MBC (±SD) by luminescence on day 21 ([1]; day 21, 99% reduction in RLU vs T0): 0.12 (0.04) µM; MBC (±SD) via CFU [2]: 0.10 (±0.03) μM; EC90 ([5]; EC90, day 3, J774 macrophages, read-out: Intracellular activity, EC90 (±SD) Day 3): 740 nM; EC90 ([5]; EC90, day 5, J774 macrophages, read-out: Intracellular activity, EC90 (±SD) Day 5): 570 nM; EC90 ([5]; EC90, day 7, J774 macrophages, read-out: Intracellular activity, EC90 (±SD) Day 7): 280 nM; PAE 1× MIC RLU ([8]; 3 h exposure at 1× MIC): 0 h; PAE 10× MIC RLU ([8]; 3 h exposure at 10× MIC): 12 h; PAE 100× MIC RLU ([8]; 3 h exposure at 100× MIC): 96 h; PAE 1× MIC CFU/ml ([9]; 3 h exposure at 1× MIC): 0 h; PAE 10× MIC CFU/ml ([9]; 3 h exposure at 10× MIC): 10 h; PAE 100× MIC CFU/ml ([9]; 3 h exposure at 100× MIC): 80 h; Toxicity against infected J774, percent inhibition at the highest tested concentration ([6]; day 7, 6.3 μM): 6.3 (11)* percent; EC90 [10]: ~120 nM
6 | COc1nc2ccc(Br)cc2cc1[C@@H](c1ccccc1)[C@@](O)(CCN(C)C)c1cccc2ccccc12 [Bedaquiline] | 0.13 (≈ 0.0722 µg/mL) | 0.11 (≈ 0.0611 µg/mL) | 0.12 (≈ 0.0667 µg/mL) |  | primarily concentration dependent | 0.16 (≈ 0.0889 µg/mL) | 0.028 (0.01) μM | 0.021 (0.01) μM |  | 890 | 290 | 220 | early growth inhibition | 100 | Toxicity against infected J774, percent inhibition at the highest tested concentration ([6]; day 7, 2 μM): 2 (7)* percent
